According to patent US20180310564A1, “Mesoionic Compound” (Nippon Kayaku Kabushiki Kaisha, priority 2015, published 2018):
Structures can show the parent of a compound that is named as a salt.

Legend:
Assay type in all cases: in vivo
[1] = system: Inedorooimushi (Oulema oryzae); assay: Test (pot test) for controlling inedorooimushi; details: larvae released 20 days after treatment, 2 days after release; for mortality at 500 g/ha: 500 g/ha as wettable powder at rice roots
Experimental: The roots of five sampled rice seedlings were washed with water. The wettable powder prepared in accordance with Formulation Example 2 described above was wrapped in the roots to be planted in a Wagner pot of 1/10000 a. After 20 days from the treatment, 3 larvae of inedorooimushi in the late instar larva were released per strain and reared in a plastic greenhouse with a room temperature set at 25° C. On 2 days after the releasing of the insects, the mortality of the insect was calculated.

[2] = system: Brown Winged Green Stink Bug (Plautia stali); assay: Test (greenhouse test) for controlling brown winged green stink bug; details: 100 ppm sprayed on apple fruit; for Number of abnormal insects / Number of dead insects / Number of normal insects: 5 adults released 7 days after treatment, triple system, 4 days after release; for Total number of sheaths formed by stylet insertion: fruit stained with fuchsine after examination; for Proportion of abnormal insects and dead insects on 4 days after releasing insects (%): insects released 7 days after treatment
Experimental: Using a commercially available hand spray, a chemical solution diluted to a concentration of 100 ppm was sprayed onto an apple fruit (cultivar: Fuji). After air-drying, the apple fruit was placed in a plastic cup, which was allowed to stand still for a specified number of […] in a plastic greenhouse with a room temperature set at 25° C. and with the natural light shining thereon. On 7 days after the treatment, 5 adult brown winged green stink bugs (without distinction between male and female) were released onto the treated fruit. On 4 days after the release of insects, the numbers of death and abnormality were observed and recorded. Triple system. Also, the fruit after examination was immersed in an acidic 0.5% fuchsine solution for 30 minutes, and then washed with water to measure the total number of sapping scars.

[3] = system: Diamondback Moth (Plutella xylostella); assay: Test (foliar dipping) for controlling diamondback moth; details: 72 h, foliar dipping of cabbage leaf, third instar larvae, 3 days after treatment
Experimental: A cabbage leaf cut to a diameter of 5.0 cm was dipped in the diluent of the test compounds diluted to 200 ppm in an amount of 20 mL and air-dried. After air-drying, the cabbage leaf was placed in a plastic cup, and 10 larvae of diamondback moths in the third instar larva were released there. The cup was covered with a lid and kept in a chamber at a constant temperature of 25° C. for rearing.

[4] = system: Rice Leaf Beetle (Oulema oryzae); assay: Test (root dipping) for controlling rice leaf beetle; details: 4 days after treatment; for mortality at 1.6 ppm: root dipping of rice seedlings, late instar larvae released after 2 days
Experimental: (§1) Ten sampled rice seedlings held with urethane in a glass cylinder having an inner diameter of 4.5 cm and a length of 14 cm were set up in a plastic cup containing 40 mL of chemical solution diluted to a desired concentration. After 2 days, 4 larvae of rice leaf beetle in the late instar larva were released in the glass cylinder. The glass cylinder was covered with a lid of medicine paper and kept in a chamber at a constant temperature of 25° C. for rearing.

[5] = system: Brown Planthopper (Nilaparvata lugens); assay: Test (foliar dipping) for controlling brown planthopper; details: 120 h, rice seedlings dipped, 5 days after treatment; for mortality at 200 ppm: third instar larvae
Experimental: […] After air-drying, the rice seedlings held with urethane in a glass cylinder having an inner diameter of 4.5 cm and a length of 14 cm were set up in a plastic cup containing 40 mL of water. Larvae of brown planthoppers in the third instar larva were released there. The cylinder was covered with a lid of medicine paper and kept in a chamber at a constant temperature of 25° C. for rearing.

[6] = system: Cotton Aphid (Aphis gossypii); assay: Test (foliar spraying) for controlling cotton aphid; details: 120 h, 5 days after treatment; for mortality at 200 ppm: foliar spraying on cucumber leaf
Experimental: A cucumber leaf cut to a diameter of 3.5 cm was placed on cotton wool moistened with water. Two adult cotton aphids were released there for offspring for 24 hours and the adult insects were then removed. […] After air-drying, the sample with cotton wool was placed in a plastic cup, which was covered with a lid and kept in a chamber at a constant temperature of 25° C. for rearing.

[7] = system: Brown Planthopper (Nilaparvata lugens); assay: Residual effect test (field experiment) for brown planthopper
Experimental: The roots of five sampled rice seedlings were washed with water. Subsequently, 25 mg of the wettable powder prepared in accordance with Formulation Example 2 described above was wrapped in the roots. Each strain was made from the five seedlings. In outdoor artificial paddy fields made from wooden frames having a size of 60 cm by 90 cm, 10 strains were planted, respectively. The artificial paddy field was shielded by an insect screen with a mesh size of 1 mm, so that invasion of harmful insects from the outside was prevented. Into the test system, 40 to 100 adult brown planthoppers were released at fixed intervals so as to cause damage to the rice. On 16 to 51 days after the treatment, the numbers of surviving insects and dead insects were measured to calculate the density index. The density index was obtained from the following expression.

[8] = system: Rice Stem Borer (Chilo suppressalis); assay: Test (pot test) for controlling rice stem borer; details: 14 days after treatment; for Browning stem ratio (%): 500 g/ha as wettable powder (Formulation Example 2) at rice roots, hatchlings released after 4 days; for Ratio to untreated (%): browning stem ratio relative to untreated, 500 g/ha
Experimental: The roots of five sampled rice seedlings were washed with water. The wettable powder prepared in accordance with Formulation Example 2 described above was wrapped in the roots to be planted in a Wagner pot of 1/10000 a. After 4 days from the treatment, a total of […] of rice stem borer were released per strain and reared in a plastic greenhouse with a room temperature set at 25° C. On 14 days after the treatment, the ratio of browning stem of seedlings for each strain and the ratio to untreated ones were calculated. Double system.

[9] = system: Southern Yellow thrips (Thrips palmi); assay: Test (foliar spraying) for controlling southern yellow thrips; details: 3 days after treatment; for mortality at 200 ppm: 72 h, foliar spraying on cucumber leaf, first instar larvae; for Mortality of Thrips palmi (%): foliar spraying
Experimental: A cucumber leaf cut to a diameter of 1.5 cm was placed on cotton wool moistened with water. […] After air-drying, 5 larvae of southern yellow thrips in the first instar larva were released there. The sample with cotton wool was placed in a plastic cup, which was covered with a lid and kept in a chamber at a constant temperature of 25° C. for rearing.

[10] = system: Brown Planthopper (Nilaparvata lugens); assay: Test (root dipping) for controlling brown planthopper; details: 120 h, root dipping, 5 days after treatment
Experimental: as §1, with “days, 10” for “days, 4”, “of brown planthoppers” for “of rice leaf beetle”, “the third” for “the late”

[11] = system: Sweetpotato whitefly (Bemisia tabaci); assay: Test (foliar spraying) for controlling sweetpotato whitefly; details: 120 h, foliar spraying on cucumber leaf, female adults, 5 days after treatment
Experimental: A cucumber leaf cut to a diameter of 6.0 cm was placed on cotton wool moistened with water. The diluent of the test compounds diluted to 200 ppm in an amount of 2 mL was sprayed onto the cucumber leaves with a spray tower. After air-drying, the cucumber leaf was placed in a plastic cup, and 20 female adult sweetpotato whiteflies were released there. The cup was covered with a lid and kept in a chamber at a constant temperature of 25° C. for rearing.

[12] = After 16 days, 25 mg wettable powder (Formulation Example 2) at roots per strain, outdoor artificial paddy field
[13] = After 23 days, 25 mg wettable powder at roots per strain, artificial paddy field
[14] = After 30 days, 25 mg wettable powder at roots per strain, artificial paddy field
[15] = After 37 days, 25 mg wettable powder at roots per strain, artificial paddy field
[16] = After 44 days, 25 mg wettable powder at roots per strain, artificial paddy field
[17] = After 51 days, 25 mg wettable powder at roots per strain, artificial paddy field

| SMILES | mortality at 125 g/ha [1] [%] | mortality at 250 g/ha [1] [%] | mortality at 500 g/ha [1] [%] | Number of abnormal insects [2] | Number of dead insects [2] | Number of normal insects [2] | Total number of sheaths formed by stylet insertion [2] | Proportion of abnormal insects and dead insects on 4 days after releasing insects (%) [2] [%] | mortality at 200 ppm [3] [%] | mortality at 200 ppm [5] [%] | mortality at 200 ppm [6] [%] | Density index of Nilaparvata lugens [7, 12] | Density index of Nilaparvata lugens [7, 13] | Density index of Nilaparvata lugens [7, 14] | Density index of Nilaparvata lugens [7, 15] | Density index of Nilaparvata lugens [7, 16] | Density index of Nilaparvata lugens [7, 17] | Browning stem ratio (%) [8] [%] | Ratio to untreated (%) [8] [%] | mortality at 200 ppm [9] [%] | further results |
| --- | --- | --- | --- | --- | --- | --- | --- | --- | --- | --- | --- | --- | --- | --- | --- | --- | --- | --- | --- | --- | --- |
| N#CCC[n+]1c([O-])c(-c2cccc(C(F)(F)F)c2)c(=O)n2ccccc21 [Compound 51, 1-(2-cyanoethyl)-2-hydroxy-4-oxo-3-(3-trifluoromethylphenyl)-4H-pyrido[1,2-a]pyrimidinium inner salt] | 83.3 | 100 | 100 | 7 | 8 | 0 | 1 | 100 | ≥ 80 | ≥ 80 | ≥ 80 | 0 | 2.6 | 21.7 | 43.1 | 37.1 | 76.2 | 10 | 12 | ≥ 80 | mortality at 1.6 ppm [4]: 100%; mortality at 0.4 ppm ([4]; 96 h, 0.4 ppm, root dipping): 100%; mortality at 0.8 ppm ([4]; 96 h, 0.8 ppm, root dipping): 100%; mortality at 0.1 ppm ([6]; 0.1 ppm, foliar spraying): 100%; mortality at 0.8 ppm ([6]; 0.8 ppm, foliar spraying): 100% |
| O=c1c(-c2cccc(C(F)(F)F)c2)c([O-])[n+](Cc2cncnc2)c2ccccn12 [Triflumezopyrim, reference compound] | 16.7 | 50 | 66.7 | 5 | 4 | 6 | 10 | 60.0 |  |  |  | 2.5 | 5.4 | 45.1 | 56.7 | 63.9 | 92.2 | 40 | 49 | 100 | mortality at 1.6 ppm [4]: 0%; mortality at 0.1 ppm ([5]; 0.1 ppm): 10%; mortality at 0.2 ppm ([5]; 0.2 ppm): 70%; mortality at 0.2 ppm ([6]; 0.20 ppm, foliar spraying): 0%; mortality at 0.39 ppm ([6]; 0.39 ppm, foliar spraying): 60%; mortality at 0.78 ppm ([6]; 0.78 ppm, foliar spraying): 85%; mortality at 0.05 ppm ([10]; 0.05 ppm): 0%; mortality at 0.1 ppm ([10]; 0.1 ppm): 70%; mortality at 0.2 ppm ([10]; 0.2 ppm): 70%; mortality at 0.4 ppm ([10]; 0.4 ppm): 70%; mortality at 0.8 ppm ([10]; 0.8 ppm): 100%; Mortality of Thrips palmi (%) ([9]; 12.5 ppm): 0%; Mortality of Thrips palmi (%) ([9]; 50 ppm): 60% |
| N#CCC[n+]1c(O)c(-c2cccc(C(F)F)c2)c(=O)n2ccccc21 [Compound 48, 1-(2-cyanoethyl)-3-(3-difluoromethylphenyl)-2-hydroxy-4-oxo-4H-pyrido[1,2-a]pyrimidinium inner salt] |  |  |  |  |  |  |  |  | ≥ 80 | ≥ 80 | ≥ 80 |  |  |  |  |  |  |  |  |  | mortality at 200 ppm [11]: ≥ 80%; mortality at 0.01 ppm ([5]; 0.01 ppm): 0%; mortality at 0.02 ppm ([5]; 0.02 ppm): 20%; mortality at 0.05 ppm ([5]; 0.05 ppm): 100% |
| N#CCC[n+]1c([O-])c(-c2cccc(OC(F)(F)F)c2)c(=O)n2ccccc21 [Compound 57, 1-(2-cyanoethyl)-2-hydroxy-4-oxo-3-(3-trifluoromethoxyphenyl)-4H-pyrido[1,2-a]pyrimidinium inner salt] |  |  |  |  |  |  |  |  | ≥ 80 | ≥ 80 | ≥ 80 | 0 | 0 | 25.4 | 50.4 | 33.0 | 80.7 | 0 | 0 | ≥ 80 |  |
